Experimental data published in patent publication US20050175544A1, “Albuterol inhalation solution, system, kit and method for relieving symptoms of pediatric asthma” (Dey LP, priority 2001, published 2005).
Where a name gives a salt, the structure may show the parent alone.

Test system: children ages 6 to 12 with asthma
Test: 4-week randomized placebo-controlled trial of nebulized albuterol solution, efficacy by FEV1
Type: in vivo
Conditions: both unit doses; initial dose (Day 1) and after 4 weeks of treatment (Day 28)
Procedure: Patients were randomized to receive a nebulizer solution comprising either 0.63 mg/3 ml or 1.25 mg/3 ml of albuterol sulfate, or a placebo. The inhalation solution was administered via a Pari LC Plus™ nebulizer and a Pari PRONEB™ compressor. […] In this study, qualifying children ages 6 to 12 were randomized to receive 1 of the following three treatments twice daily (TD) for 4 weeks, each in 3.0 mL volume: (1) 1.25 mg albuterol sulfate inhalation solution; (2) 9.63 mg albuterol sulfate inhalation solution; or (3) placebo (saline). Each patient was provided with a personal compressor-driven PARI LC PLUS™ nebulizer, by Pari Respirator Equipment, Inc., Richmond, Va., for the duration of the study. […] The 4-week study period began with the initial dose, to be taken in the morning, administered at the study site. Pre-dose pulmonary function tests and pulmonary function tests 30 minutes after the end of nebulization and hourly thereafter for 6 hours were performed. After 11 days, patients returned for exchange of study medication and diaries and pulmonary function tests before and 30 minutes after the morning dosing. […] The safety profiles of each unit dose and placebo were determined by collecting vital signs (heart rate, blood pressure, respiration rate, and body temperature) as well as electrocardiograms. […]

CC(C)(C)NCC(O)c1ccc(O)c(CO)c1 (stereo not drawn) [albuterol, α^1-[(tert-butylamino)methyl]-4-hydroxy-m-xylene-α,α′-diol sulfate (2:1)(salt)]
Improvement in FEV1 compared to placebo (area under percent change from pre-dose FEV1 versus time curve): significant improvement
